Molecules are shown by their SMILES.

The target in the assay is Trypsin (Homo sapiens, UniProt P07477+P07478+P35030). The assay is described as follows: Inhibition of trypsin (unknown origin). The assay is classed as protein assay.
One may read the IC50 as the concentration at which inhibition is half-maximal. A high value points to weaker potency in that assay. `CC[C@H](C)[C@@H](NC(=O)[C@@H](O)Cc1ccc(O)c(Cl)c1)C(=O)N1[C@H](C(=O)NCCCCNC(=N)N)C[C@@H]2CC[C@@H](O)C[C@@H]21`: the IC50 is 2.8 µM. The result for `N=C(N)NCCCCNC(=O)[C@@H]1C[C@@H]2CC[C@@H](O)C[C@@H]2N1C(=O)[C@H](Cc1ccccc1)NC(=O)[C@@H](O)Cc1ccc(O)cc1` reads 0.5 mg/L; that for `CC(C)C[C@@H](NC(=O)[C@H](O)Cc1ccc(O)c(Br)c1)C(=O)N1[C@H](C(=O)NCCCCNC(=N)N)C[C@@H]2CC[C@@H](O)C[C@@H]21`, 4.1 µM. Then `CC(C)C[C@@H](NC(=O)[C@H](O)Cc1ccc(O)c(Cl)c1)C(=O)N1[C@H](C(=O)NCCCCNC(=N)N)C[C@@H]2CC[C@@H](O)C[C@@H]21`, with 4.3 µM.

The record behind these values is ChEMBL document CHEMBL2384948, “Aeruginosins from a Microcystis sp. bloom material collected in Varanasi, India” (J Nat Prod, 2013).
